Laboratory results reported in the NIST ThermoML archive (doi:10.1016/j.jct.2005.09.003).

Test: xn = mol fraction of the nth substance listed
Conditions: Liquid

CCCCCCCl [1-chlorohexane] + CCCCCCCC
mass density [kg/m3]
Conditions	x2 = 0	x2 = 0.1016	x2 = 0.1996	x2 = 0.3153	x2 = 0.3948	x2 = 0.4862	x2 = 0.5938	x2 = 0.6966	x2 = 0.794	x2 = 0.9001
298.15 K, 100 kPa	873.42	852.6	833.25	811.26	796.69	780.47	762.03	745.09	729.61	713.36
298.15 K, 2130 kPa	874.73	854.08	834.69	812.8	798.13	781.96	763.56	746.66	731.16	714.88
298.15 K, 4150 kPa	876.45	855.81	836.43	814.54	799.88	783.71	765.29	748.4	732.88	716.61
298.15 K, 6180 kPa	878.31	857.67	838.25	816.37	801.68	785.49	767.08	750.15	734.61	718.33
298.15 K, 8210 kPa	879.79	859.18	839.81	817.9	803.24	787.05	768.66	751.72	736.21	719.94
298.15 K, 10230 kPa	881.44	860.8	841.43	819.53	804.88	788.69	770.3	753.38	737.85	721.55
298.15 K, 11250 kPa	882.22	861.6	842.23	820.34	805.7	789.48	771.11	754.16	738.66	722.34
298.15 K, 12260 kPa	883.01	862.42	843.03	821.13	806.5	790.3	771.9	754.95	739.44	723.13
298.15 K, 14290 kPa	884.61	864.01	844.63	822.72	808.08	791.9	773.49	756.55	741	724.69
298.15 K, 16310 kPa	886.16	865.53	846.17	824.27	809.62	793.43	775.01	758.05	742.51	726.2
298.15 K, 18340 kPa	887.68	867.07	847.69	825.8	811.15	794.94	776.55	759.59	744.03	727.69
298.15 K, 20370 kPa	889.18	868.58	849.18	827.29	812.64	796.42	778.03	761.06	745.51	729.16
298.15 K, 22390 kPa	890.65	870.05	850.64	828.77	814.1	797.89	779.48	762.51	746.97	730.59
298.15 K, 24420 kPa	892.14	871.52	852.13	830.22	815.56	799.35	780.91	763.95	748.37	732.01
298.15 K, 26450 kPa	893.54	872.95	853.55	831.64	816.97	800.75	782.33	765.32	749.76	733.39
298.15 K, 28470 kPa	894.96	874.35	854.96	833.04	818.37	802.14	783.71	766.73	751.13	734.74
298.15 K, 29490 kPa	895.65	875.05	855.64	833.73	819.06	802.85	784.39	767.4	751.81	735.41
298.15 K, 30500 kPa	896.32	875.72	856.33	834.42	819.73	803.52	785.07	768.07	752.47	736.07
298.15 K, 32530 kPa	897.71	877.11	857.7	835.79	821.11	804.86	786.42	769.4	753.8	737.38
298.15 K, 34550 kPa	899.05	878.46	859.03	837.12	822.43	806.19	787.72	770.72	755.08	738.69
298.15 K, 36580 kPa	900.38	879.77	860.35	838.43	823.74	807.48	789.01	772.01	756.36	739.94
298.15 K, 38600 kPa	901.69	881.06	861.67	839.72	825.03	808.77	790.32	773.27	757.63	741.21
298.15 K, 39620 kPa	902.33	881.71	862.31	840.38	825.68	809.4	790.96	773.9	758.25	741.83
308.15 K, 100 kPa	863.99	843.29	824.06	802.22	787.75	771.63	753.33	736.52	721.15	705.03
308.15 K, 2130 kPa	865.56	845	825.77	803.94	789.46	773.39	755.1	738.36	722.94	706.75
308.15 K, 4150 kPa	867.35	846.81	827.59	805.76	791.31	775.22	756.95	740.19	724.76	708.57
308.15 K, 6180 kPa	869.15	848.61	829.39	807.57	793.1	777.03	758.74	742	726.58	710.37
308.15 K, 8210 kPa	870.9	850.37	831.16	809.34	794.85	778.81	760.51	743.77	728.34	712.11
308.15 K, 10230 kPa	872.61	852.08	832.88	811.05	796.6	780.52	762.22	745.47	730.04	713.8
308.15 K, 11250 kPa	873.47	852.95	833.74	811.91	797.46	781.38	763.1	746.33	730.91	714.66
308.15 K, 12260 kPa	874.3	853.78	834.58	812.74	798.31	782.22	763.93	747.17	731.72	715.48
308.15 K, 14290 kPa	875.96	855.47	836.25	814.43	799.98	783.88	765.62	748.84	733.37	717.14
308.15 K, 16310 kPa	877.59	857.09	837.88	816.06	801.61	785.51	767.22	750.45	735	718.74
308.15 K, 18340 kPa	879.2	858.68	839.49	817.66	803.22	787.12	768.81	752.06	736.58	720.34
308.15 K, 20370 kPa	880.78	860.28	841.08	819.25	804.79	788.69	770.37	753.6	738.13	721.86
308.15 K, 22390 kPa	882.35	861.81	842.63	820.79	806.33	790.24	771.9	755.13	739.65	723.39
308.15 K, 24420 kPa	883.86	863.33	844.15	822.3	807.85	791.75	773.44	756.65	741.13	724.85
308.15 K, 26450 kPa	885.35	864.85	845.66	823.79	809.33	793.23	774.9	758.1	742.61	726.31
308.15 K, 28470 kPa	886.84	866.32	847.13	825.28	810.81	794.7	776.37	759.57	744.06	727.75
308.15 K, 29490 kPa	887.56	867.04	847.84	825.98	811.52	795.4	777.07	760.27	744.75	728.43
308.15 K, 30500 kPa	888.21	867.77	848.57	826.72	812.26	796.13	777.79	760.96	745.47	729.14
308.15 K, 32530 kPa	889.73	869.2	850.02	828.15	813.68	797.54	779.17	762.38	746.85	730.54
308.15 K, 34550 kPa	891.14	870.61	851.41	829.56	815.08	798.95	780.59	763.77	748.23	731.86
308.15 K, 36580 kPa	892.52	872.01	852.79	830.94	816.46	800.32	781.95	765.13	749.58	733.19
308.15 K, 38600 kPa	893.9	873.39	854.16	832.28	817.83	801.66	783.3	766.43	750.88	734.53
308.15 K, 39620 kPa	894.55	874.04	854.82	832.94	818.49	802.33	783.95	767.08	751.54	–
